From patent US7985774B2, “Use of 3,5-seco-4-nor-cholestane derivatives for obtaining a cytoprotective drug” (Trophos, priority 2006, dated 2011)

System: rabbit ventricular cardiomyocytes
Test: Contractile dysfunction test induced by doxorubicin (sarcomer shortening)
Assay type: cell-based
Settings: after 4 hrs of exposure
Procedure: A stock solution of 3,5-seco-4-nor-cholestan-5-one oxime-3-ol at a concentration of 10 mM in 100% DMSO was used.
The final concentration in DMSO was the same for all the experimental points, independently of the molecular concentrations used.
3,5-seco-4-nor-cholestan-5-one oxime-3-ol was tested at concentrations of 0.1 and 0.3 μM, diluted in a Tyrode solution (composition in mmol/L: NaCl 135, KCl 5.4, NaH2PO4 0.33, CaCl2 1.2, MgCl2 1.0, Hepes 10; pH adjusted to 7.4 with NaOH).
Isolated ventricular cells are obtained from hearts of male New Zealand rabbits as described in A. d'Anglemont de Tassigny et al., Fund. Clin. Pharmacol, 18: 531-38, 2004. Briefly, the rabbits (2.0-2.5 kg) are anaesthetized with a pentobarbital solution (50 mg/kg) and they then receive heparin (200 IU/kg). The hearts are excised and immediately perfused, for 10-15 minutes by means of a Langendorff apparatus without recirculation with an oxygenated tyrode (calcium-free) isotonic solution (95%, 2-5% CO2) (in mM: NaCl 135, KCl 5.4, Na2PO4 0.33, MgCl2 1.0, HEPES 10, pH adjusted to 7.4 with 1N NaOH at 37° C., 280-300 mOsmol/kgH2O). […]
The myocytes were selected for the study according to the following criterion: a rod-like aspect with very apparent striations and no intracellular vacuola, no spontaneous contraction when they are stimulated with 1 mM Ca^2+, and with constant rest length and contraction amplitude. The length of the sarcomers was measured by means of a video image analysis program and the data were acquired at a rate of 240 samples/s. […]
Apoptosis is induced in isolated cardiomyocytes by 3-8 hour exposure to 1 μM of doxorubicin added into an isotonic solution containing (in mM) NaCl 110, KCl 5.4, Na2PO4 0.33, NaHCO3 25, glucose 5, MgCl2 0.8, CaCl2 1, pH adjusted to 7.4. […] The contractility of cardiomyocytes was measured every hour during the 8 hrs of exposure to doxorubicin. […]

In the case of CC(C)CCC[C@@H](C)[C@H]1CC[C@H]2[C@@H]3CC/C(=N\O)[C@](C)(CCCO)[C@H]3CC[C@]12C [3,5-seco-4-nor-cholestan-5-one oxime-3-ol], the “shortening of the peak relatively to the base line” value (doxorubicin 1 μM + compound 0.1 μM (15 min pre-treatment)) is reported as 18.9±5.4% and the “shortening of the peak relatively to the base line” value (doxorubicin 1 μM + compound 0.3 μM (15 min pre-treatment)) is reported as −8.1±9.6%.
